# Columns and labels:
# [1] = tested on: C57BL/6 and p47phox-/- mice subjected to DSS-induced colitis; experiment: DSS-induced colitis in C57BL/6 and p47phox-/- mice; format: in vivo
# Method: In vivo models mimicking human pathology such as lung and gut inflammation were prepared. A model of lung inflammation was tested using C57BL/6 and p47phox-/- mice. The mice were infected with A. fumigatus intranasally and treated them with Tβ4 for 7 consecutive days starting a week after the infection. LC3-II (FIG. 1F) and DAPK1 (FIG. 1G) expression were both defective in p47phox-/- mice, but restored by Tβ4 and ablated (LC3-II) upon siTβ4 (FIGS. 10A and 10B). In addition, gut inflammation was tested using the same mouse model. Acute colitis in p47phox-/- mice was initiated by administering […] in drinking water for 7 days followed by 7 days of DSS-free autoclaved water. Subsequently, Tβ4 was therapeutically administered daily for 7 days, after DSS treatment, at the time at which mice started to lose weight. Consistent with previous findings (de Luca et al., 2014), LC3-II (FIG. 1H) and DAPK1 (FIG. 1I) expression were both defective in the colon ofp47phox-/- mice with colitis as opposed to WT mice but restored upon treatment with T134 (FIGS. 1H and 1I). DAPK1 expression in colon lysates of C57BL/6 and p47^phox-/- mice subjected to DSS-induced colitis for a week and treated intraperitoneally with 5 mg/kg Tβ4 for 7 consecutive days after DSS treatment, n=6-10 mice per group. Data are presented as mean ±SD and are representative of two experiments. Mice were categorized as Naive (uninfected or untreated mice) or None (infected mice). For immunoblotting, normalization was performed on mouse β-actin or Gapdh and corresponding pixel density or ratio is depicted. For immunofluorescence, nuclei were counterstained with DAPI. Photographs were taken with a high-resolution microscope (Olympus BX51), 40× and 100× magnification. LC3 mean fluorescence intensity (MFI) was measured with the ImageJ software. In FIGS. 1F-1H, n=6-10 mice per group. Data are presented as mean ±SD and are representative of two experiments. Naïve, uninfected or untreated mice. None, infected mice.
# Dextran Sulfate Sodium (DSS) (2.5% wt/vol, […]; MP Biomedicals) was administered in drinking water ad libitum for 7 days. Fresh solution was replaced on day 3. Mice were injected with 5 mg/kg of Tβ4 every day intraperitoneally in concomitance with (days 0→7) or after (days 7→14) DSS administration. Control received the diluent alone. Weight loss, stool consistency, and faecal blood were recorded daily. Upon necropsy (7 and 14 days after DSS administration), tissues were collected for histology and cytokine analysis. Colonic sections were stained with Hematoxylin and Eosin. Colitis disease activity index was calculated daily for each mouse based on weight loss, occult blood, and stool consistency. A score of 1-4 was given for each parameter as described (McNamee et al., 2011 Interleukin 37 expression protects mice from colitis. Proc Natl Acad Sci U S A 108:16711-16716).
# For immunoblotting, organs or cells were lysed in RIPA buffer. The lysate was separated in sodium dodecyl sulfate-polyacrylamide gel electrophoresis (SDS-PAGE) and transferred to a nitrocellulose membrane. The membranes were incubated with the following primary antibodies at 4 °C overnight: anti-DAPK1 (antibodies-online.com), anti-Rubicon (Cell Signaling), anti-Tβ4 and anti-NLRP3 (Abcam), anti-LC3B (Cell Signaling or Abcam). Normalization was performed by probing the membranes with mouse anti-β-actin and anti-Gapdh antibodies (Sigma-Aldrich). Normalization was performed on mouse β-actin or Gapdh and corresponding pixel density is depicted. LC3-II band density was normalized to LC3-I to obtain ratio. Chemiluminescence detection was performed with LiteAblot Plus chemiluminescence substrate (EuroClone S.p.A.), using the ChemiDocTM XRS+ Imaging System (Bio-Rad) and quantification was obtained by densitometry image analysis using Image Lab 5.1 software (Bio-Rad).
# Real-time RT-PCR was performed using CFX96 Touch Real-Time PCR Detection System and SYBR Green chemistry (Bio-Rad). […]
# [2] = tested on: peritoneal polymorphonuclear cells and alveolar macrophages; experiment: Phagocytosis and conidiocidal activity of effector phagocytes pulsed with live Aspergillus conidia; format: cell-based, mice; details: 10 and 100 nM 1 hour before 2 hours pulsing with conidia (FIG. 4B)
# Method: Murine polymorphonuclear cells (PMNs) from C57BL/6 or p47phox-/- uninfected mice were positively selected with magnetic beads (Miltenyi Biotech) from the peritoneal cavity of mice 8 hours after the intraperitoneal injection of 1 ml endotoxin-free 10% thioglycolate solution. On fluorescence-activated cell sorting (FACS) analysis, Gr-1+PMNs were 98% pure and stained positive for the CD11b myeloid marker. Monolayers of plastic-adherent macrophages were obtained, after 2 hours plastic adherence, from lung of C57BL/6 and p47phox-/- uninfected mice. Cells were pre-treated for 1 hour with different concentrations of Tβ4 (10 and 100 nM) before pulsing with A. fumigatus conidia (1:3 cell/fungus ratio for phagocytosis and 10:1 cell/fungus for conidiocidal activity) for 120 min at 37° C. The percentage of CFU inhibition (mean±SD) was determined as described previously (Bellocchio et al., 2004 TLRs govern neutrophil activity in aspergillosis. J Immunol 173:7406-7415).
substance,measurement,setting,value
Thymosin β4 [Tβ4],HIF-1α expression in the colon,[1]; 5 mg/kg i.p. 7 consecutive days after DSS (FIG. 2H),restoration
same,weight change,[1]; Tβ4 5 mg/kg i.p. after DSS (FIG. 5A),weight regain
same,disease activity index scores,[1]; Tβ4 5 mg/kg i.p. after DSS (FIG. 5B),decreased
same,inflammatory pathology and tissue architecture (H&E colon histology),[1]; Tβ4 5 mg/kg i.p. after DSS (FIG. 5C),amelioration
same,NLRP3 expression in colon,[1]; Tβ4 5 mg/kg i.p. after DSS (FIG. 5D),decreased
same,anti-inflammatory cytokines (TGF-β),[1]; colon (FIG. 5G),up-regulation
same,Cldn1 expression,[1]; colon (FIG. 5H),greatly promoted
same,Ocln expression,[1]; colon (FIG. 5H),greatly promoted
same,"inflammatory cytokine levels (IL-1β, MPO, TNF-α, IL-17A)",[1]; colon homogenates (FIGS. 5E and 5F),decreased
same,"expression of angiogenesis-related genes (Angpt2, Tie2, Vegfa, Fgf2, Epo, Cxcr4)",[1]; colon homogenates of p47phox-/- mice (FIG. 3D),upregulation
same,LC3-II expression in colon,"[1]; p47phox-/- mice with colitis, 5 mg/kg i.p. 7 consecutive days after DSS (FIG. 1H)",restored
same,DAPK1 expression in colon,"[1]; p47phox-/- mice with colitis, 5 mg/kg i.p. 7 consecutive days after DSS (FIG. 1I)",restored
same,fungal killing of effector phagocytes (conidiocidal activity),[2],potentiate
same,phagocytosis of effector phagocytes,[2],potentiate

# From patent US20220241378A1, “COMPOSITIONS AND METHODS FOR TREATMENT OF CHRONIC GRANULOMATOUS DISEASE” (priority 2019, published 2022)
